From US20210284691A1, “CBX8 CHROMDOMAIN INHIBITORS AND THE USES THEREOF” (Purdue Research Foundation, priority 2019, published 2021)
Read-outs that look alike come from different tables or passages of the source. One block for each compound: values may come before it. Square brackets hold non-standard residues; d marks the D form. Peptide text beside a SMILES is read from it. * marks the point of attachment. ξ: configuration not given here. Isoxazole3carbonyl(5-Me) = Cc1cc(C(=O)*)no1; Tyr(3-Cl) = N[C@@H](Cc1ccc(O)c(Cl)c1)C(=O)O; Benzoyl(4-OPh) = O=C(c1ccc(Oc2ccccc2)cc1)*; Benzoyl(4-Ph) = O=C(c1ccc(-c2ccccc2)cc1)*; Lys(Me3) = C[N+](C)(C)CCCC[C@H](N)C(=O)O; Gly(3-thienyl) = N[C@H](C(=O)O)c1ccsc1; Lys(Et2) = CCN(CC)CCCC[C@H](N)C(=O)O; Gly(cPent) = N[C@H](C(=O)O)C1CCCC1; Gly(cPr) = N[C@H](C(=O)O)C1CC1; ξIle = CC[C@H](C)C(N)C(=O)O; NH(propargyl) = C#CCN*

How the values were obtained:
[1] = tested on: H3K27me3, AR, ENO2, N-Myc, CBX2 protein levels; test: Western blotting of protein expression in VCaP_NED cells; type: cell-based
Description: FIG. 12A). Neuroendocrine differentiation (NED) of prostate cancer induced by androgen deprivation. Representative pictures of LNCaP cells treated with normal media or charcoal-stripped serum (CSS) media for 6 days to induce neuroendocrine differentiation (LNCaP_NED). FIG. 12B). Transcriptional fold changes of KLK3/TMPRSS2/ENO2/CHGA were quantified normalized to control gene YWHAZ upon CSS media treatment for 6 or 9 days. FIG. 12C). Western blotting of CBX paralogs in LNCaP and LNCaP_NED cells generated from 14-day CSS treatment. FIG. 12D). Cell proliferation of LNCaP_NED following 5 days incubation with 2 or 10 μM SW2_152F. DMSO was used as negative control. FIG. 12E). LNCaP_NED cells were treated with 10 μM SW2_152F for 24 h-96 h. Cell morphology pictures were captured starting from 24 h. Average cell size were plotted at 24 h or 48 h for both DMSO group and compound treated group. FIG. 12F). LNCaP_NED cells were treated with 10 μM or 50 μM SW2_152F for 48 hours. Transcriptional fold change of genes (KLK3/TMPRSS2/AR/CBX2) were normalized to YWHAZ in LNCaP_NED cells with SW2_152F treatment or DMSO. FIG. 12G). LNCaP cells were treated with DMSO. LNCaP_NED cells were treated with DMSO, 10 μM GSK343 or 10 μM SW2_152F for 48 hours. Whole cell lysates were extracted for western blotting. FIG. 12H). LNCaP_NED cells were treated with DMSO or 10 μM SW2_152F for 4 hours before harvest. Binding of H3K27me3 and CBX2 at specific genomic sites (KLK3/TMPRSS2, e: enhancer, p: promoter) were evaluated using chromatin immunoprecipitation-qPCR. For all experiments in the figure, error bars represent SEM n=3 biological replicates, p-values were calculated using two-tailed Student's t-test, *=p<0.05, **=p<0.01, ***=p<0.001, ****=p<0.0001.
In another androgen-sensitive prostate cancer cell line, VCaP, 6 days of androgen deprivation decreases AR protein expression and increases ENO2, N-Myc, H3K27me3 and CBX2 protein expression (FIG. 12G), similar to published findings (Y. Zhang, et al., 2018). Using this NED cell line (VCaP_NED), we tested how addition of EZH2 inhibitor GSK343 or CBX2 inhibitor SW2_152F affects protein expression changes during NED.

CBX7 ChD = target: T1, CBX7 ChD (Homo sapiens, UniProt O95931); test: Competitive fluorescence polarization (FP) assay; type: binding; conditions: average of quadruplicates ± s.d.
T1 construct: CBX chromodomain constructs; host or cells: E. coli BL21 CodonPlus RIL
T1 sequence (O95931 11-69 limits assumed): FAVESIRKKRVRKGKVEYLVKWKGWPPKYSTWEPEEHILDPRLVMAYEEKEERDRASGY
Protocol: (§1) CBX chromodomain constructs (addgene plasmid #25158 (CBX2), #25237 (CBX4), #25296 (CBX6), #25241 (CBX7) and #62514 (CBX8, provided by Cheryl Arrowsmith), Kaustov et al.) were transformed into chemically competent BL21 CodonPlus RIL E. coli cells (Stratagene, La Jolla, Calif.) as N-terminal His6-tagged proteins. Bacterial growth was completed at 37° C. in LB media to OD600=2.0, followed by reducing the temperature to 16° C. over 30-60 min and induced with 1 mM IPTG for 16 h. Cells were collected by centrifugation at 6000 rpm for 20 min and resuspended in ChD binding buffer (20 mM Tris, pH 8, 150 mM NaCl, 0.01% Tween-20, 20 mM imidazole) with 1.0 mM PMSF. Bacteria pellets were stored at −80° C. until needed. Pellets were thawed on ice for 10 min in ChD binding buffer, and shaked at 4° C. supplemented with 100 μg/mL lysozyme, 1 mg/mL CHAPS and 1 mM PMSF, for 30 min. Cells were subsequently lysed by sonication (15 W, 30 s on, followed by 30 s off, twice, followed by 20 W for 1 min). The solubilized fraction was collected by centrifugation at 15000 rpm for 40 min at 4° C. Meanwhile, Ni-NTA Agarose resin (QIAGEN, Venlo, Netherlands) was washed with H2O and equilibrated with ChD binding buffer. The soluble fraction was incubated with the prewashed Ni-NTA agarose resin at 4° C. for 2 h. The resin was then washed 3× with ChD purification buffer (20 mM Tris, pH 8, 150 mM NaCl, 0.01% Tween-20, 1 mM PMSF). Proteins were eluted by the addition of 0.5 M imidazole to ChD purification buffer. The elution was diluted with 30% glycerol, flash frozen, and stored at −80° C. until needed. Protein purity was assessed by SDS-PAGE and concentration was determined by the Pierce 660 kit (Thermo Scientific).
(§2) Competitive Fluorescence polarization (FP) assay of PSL hits against CBX6 ChD, CBX7 ChD and CBX8 ChD. FP was measured by titration of CBX ChDs to a FITC-labelled probe as previously reported (Simhadri et al.). Binding and competition FP assays were performed in black 384-well plates with optical bottoms. The protein concentrations used were selected based on the reported relative affinity of the CBX ChD protein for the FITC probes. The FITC-labeled probe was kept constant at 100 nM with 1 μM CBX6, 0.4 μM CBX7 or 4 μM CBX8 with varying amounts of peptide by 2-fold series dilutions, from 500 μM as highest peptide concentration to 0.488 μM as the lowest. Assays were performed for each peptide in four replicates.

CBX6 ChD = target: T2, CBX6 ChD (Homo sapiens, UniProt O95503); test: Competitive fluorescence polarization (FP) assay; type: binding; conditions: average of quadruplicates ± s.d.
T2 construct: CBX chromodomain constructs; host or cells: E. coli BL21 CodonPlus RIL
T2 sequence (O95503 11-69 limits assumed): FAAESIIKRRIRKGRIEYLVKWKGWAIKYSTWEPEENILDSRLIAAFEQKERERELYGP
Protocol: as §1, §2

CBX8 ChD [2] = target: T3, CBX8 ChD (Homo sapiens, UniProt Q9HC52); test: Competitive fluorescence polarization (FP) assay; type: binding
T3 construct: CBX chromodomain constructs; host or cells: E. coli BL21 CodonPlus RIL
T3 sequence (Q9HC52 11-69 limits assumed): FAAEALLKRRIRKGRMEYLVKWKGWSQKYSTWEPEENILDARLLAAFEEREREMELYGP
Protocol: as §1, §2

CBX8 ChD [3] = target: T3, CBX8 ChD; test: Direct fluorescence polarization (FP) binding assay
Protocol: as §1, with “Bacterial” for “CBX chromodomain constructs (addgene plasmid #25158 (CBX2), #25237 (CBX4), #25296 (CBX6), #25241 (CBX7) and #62514 (CBX8, provided by Cheryl Arrowsmith), Kaustov et al.) were transformed into chemically competent BL21 CodonPlus RIL E. coli cells (Stratagene, La Jolla, Calif.) as N-terminal His6-tagged proteins. Bacterial”
Direct fluorescence polarization (FP) binding assay of PSL hits against PcG CBX ChDs. FP assays were conducted as above with slight modifications. Alkyne peptides described above were conjugated with a fluorescein group(5-/6-FAM) through copper catalyzed click reaction as previously described. The FAM-labeled peptide was kept constant at 100 nM. The CBX ChD proteins were titrated by 2-fold series dilutions in the assays. The highest protein concentrations, at which FAM-peptide was completely bound, used for each CBX in the direct binding assays depends on the binding affinity of the peptides. Assays were performed for each peptide in four replicates.

[4] = competitive FP, average of quadruplicates ± s.d., read-out: IC50 (μM) CBX8

SMILES: CCCc1cc(C)[nH]c(=O)c1CNC(=O)c1cc(-c2ccnc(N3CCN(C)CC3)c2)cc2c1cnn2C(C)C [GSK343]
CBX2 protein expression [1]: decrease in CBX2 expression
H3K27me3 levels ([1]; 10 μM, 48 hours): reduces H3K27me3 levels
AR, ENO2 and N-Myc expression ([1]; compared to DMSO): increase AR and decrease ENO2 and N-Myc expression

SMILES: C#CCNC(=O)[C@H](CO)NC(=O)[C@H](CCCCN(CC)CC)NC(=O)[C@@H](NC(=O)[C@@H](NC(=O)c1ccc(Oc2ccccc2)cc1)c1ccsc1)[C@@H](C)CC [SW2-110B] ({Benzoyl(4-OPh)}-[Gly(3-thienyl)]I[Lys(Et2)]S-{NH(propargyl)})
IC50 (μM) CBX7 (CBX7 ChD): ND (Aggreg.)
IC50 (μM) CBX6 (CBX6 ChD): ND (Aggreg.)

SMILES: CC[C@H](C)C(NC(=O)[C@@H](NC(=O)c1ccc(-c2ccccc2)cc1)C1CCCC1)C(=O)N[C@@H](CCCC[N+](C)(C)C)C(=O)N[C@@H](CO)C(N)=O (stereo partly drawn) [SW2_89] ({Benzoyl(4-Ph)}-[Gly(cPent)][ξIle][Lys(Me3)]S-NH2)
IC50 (μM) CBX6 (CBX6 ChD): ND (Aggreg.)

SMILES: CC[C@H](C)C(NC(=O)[C@@H](NC(=O)[C@H](Cc1ccc(O)c(Cl)c1)NC(=O)c1cc(C)on1)C1CC1)C(=O)N[C@@H](CCCC[N+](C)(C)C)C(=O)N[C@@H](CO)C(N)=O (stereo partly drawn) [SW2_90] ({Isoxazole3carbonyl(5-Me)}-[Tyr(3-Cl)][Gly(cPr)][ξIle][Lys(Me3)]S-NH2)
IC50 (CBX7 ChD): 0.82 ± 0.12 µM

SMILES: C#CCNC(=O)[C@H](CO)NC(=O)[C@H](CCCCN(CC)CC)NC(=O)C(NC(=O)[C@@H](NC(=O)c1ccc(-c2ccccc2)cc1)c1ccsc1)[C@@H](C)CC (stereo partly drawn) [SW2_104B] ({Benzoyl(4-Ph)}-[Gly(3-thienyl)][ξIle][Lys(Et2)]S-{NH(propargyl)})
IC50 (μM) CBX7 (CBX7 ChD): ND (Aggreg.)
IC50 (μM) CBX6 (CBX6 ChD): ND (Aggreg.)
IC50 (CBX8 ChD [2]; [4]): > 15 µM

SMILES: CC[C@H](C)[C@H](NC(=O)[C@@H](NC(=O)c1ccc(Oc2ccccc2)cc1)C1CCCC1)C(=O)N[C@@H](CCCCN(CC)CC)C(=O)N[C@@H](CO)C(=O)NCc1cn(CCCCNC(=O)c2ccc3c(c2)C2(OC3=O)c3ccc(O)cc3Oc3cc(O)ccc32)nn1 [SW2_110A-FL]
selectivity for CBX8 ChD over CBX7 ChD (CBX8 ChD [3]; from Kd values): 20 fold
selectivity for CBX8 over CBX2 (CBX8 ChD [3]; from Kd values): 5 fold

SMILES: C#CCNC(=O)[C@H](CO)NC(=O)[C@H](CCCCN(CC)CC)NC(=O)C(NC(=O)[C@@H](NC(=O)c1ccc(Oc2ccccc2)cc1)C1CCCC1)[C@@H](C)CC (stereo partly drawn) [SW2_110A] ({Benzoyl(4-OPh)}-[Gly(cPent)][ξIle][Lys(Et2)]S-{NH(propargyl)})
IC50 (μM) CBX7 (CBX7 ChD): ND (Aggreg.)
IC50 (μM) CBX6 (CBX6 ChD): ND (Aggreg.)
IC50 (CBX8 ChD [2]): > 7 µM
Kd (CBX8 ChD [3]): ~0.8 µM
selectivity for CBX8 over all other CBX paralogs in vitro (CBX8 ChD [3]): ≥ 5 fold
inhibition of THP1 proliferation compared to DMSO (THP1 cells; 100 μM, after 12 days of treatment): ~80%
IC50 (THP1 cells; read-out: IC50 for growth inhibition of THP1 cells, 12-day treatment, CellTiter-Glo): 25 ± 1.1 µM

Continued, values first:

IC50 (CBX8 ChD [2]; [4]): 40 ± 8.3 µM
SMILES: CC[C@H](C)C(NC(=O)[C@@H](NC(=O)c1ccc(-c2ccccc2)cc1)C1CC1)C(=O)N[C@@H](CCCC[N+](C)(C)C)C(=O)N[C@@H](CO)C(N)=O (stereo partly drawn) [SW2_101A] ({Benzoyl(4-Ph)}-[Gly(cPr)][ξIle][Lys(Me3)]S-NH2)

IC50 (CBX7 ChD): > 100 µM
IC50 (CBX6 ChD): > 100 µM
SMILES: CC[C@H](C)C(NC(=O)[C@@H](NC(=O)c1ccc(Oc2ccccc2)cc1)C1CCCC1)C(=O)N[C@@H](CCCC[N+](C)(C)C)C(=O)N[C@@H](CO)C(N)=O (stereo partly drawn) [SW2_101B] ({Benzoyl(4-OPh)}-[Gly(cPent)][ξIle][Lys(Me3)]S-NH2)

IC50 (CBX6 ChD): > 100 µM
IC50 (CBX8 ChD [2]; [4]): 4 ± 1.1 µM
SMILES: CC[C@H](C)C(NC(=O)[C@@H](NC(=O)c1ccc(Oc2ccccc2)cc1)C1CC1)C(=O)N[C@@H](CCCC[N+](C)(C)C)C(=O)N[C@@H](CO)C(N)=O (stereo partly drawn) [SW2_101F] ({Benzoyl(4-OPh)}-[Gly(cPr)][ξIle][Lys(Me3)]S-NH2)
